Experimental findings from patent publication US20250002954A1, “Novel Compound, Use Thereof, and Method for Producing Same, and Compound-Containing Composition, Method for Producing 4-Trehalosamine, and Microorganism” (Microbial Chemistry Research Foundation, priority 2021, published 2025) are described below.

Molecules are shown by their SMILES.

Series [1] in a line: Dynamics upon oral administration to mice (blood level, urinary and fecal excretion). Format: in vivo, ICR mice. As to conditions: single oral dose 0.5 mg per g of body weight. The procedure: 4-trehalosamine or trehalose dissolved in saline at 0.5 mg/10 μL per g of body weight was orally administered in a single dose to ICR mice (9-week to 10-week old, female, n=5) that had been fasted overnight. The five mice on which the same treatment had been performed were placed in the same cage.
Urine and feces were regularly collected together. The collected feces were suspended in water at 200 mg/mL and centrifuged at 21,300×g for 5 minutes. The centrifuged supernatant of feces suspension and the collected urine were each diluted with methanol to 1/1,000, on which LC-MS analysis was performed under similar conditions to test example 1 and cumulative excretion of 4-trehalosamine (4TA) or trehalose (TRH) over time was calculated.
Blood was regularly collected from tail vein in an amount of around 10 μL to 20 μL, and 200 μL of methanol was added to it after measurement. After agitation on a vortex, it was centrifuged at 21,000×g for 5 minutes. The supernatant was diluted with methanol to ⅕ and LC-MS analysis was performed on it under similar conditions to test example 1. The results for 4-trehalosamine are shown in FIG. 19G and the results for trehalose are shown in FIG. 19H for each individual (n=5).

Series [2] can be described thus: Starch aging inhibiting effect, enzyme assay 4 (rice flour gel). As to conditions: final concentration 10% or 15% (w/w), 48 and 96 hours. The procedure:
Starch aging inhibiting effect was determined in a similar manner to the <Enzyme assay 3> except that potato starch was changed to rice flour (manufactured by OSAWA JAPAN) in the “—Preparation of measurement samples—” of the <Enzyme assay 3>. The results for the 10% (w/w) final concentration of the different sugars are shown in FIG. 15G, and the results for the 15% (w/w) final concentration of the different sugars are shown in FIG. 15H.

The nature of series [3]: Dynamic viscoelasticity measurement of corn starch gel. Format: physicochemical. Particulars: corn starch gel with 10% aqueous solution, 4° C., after 96 hours. The procedure:
In 20-mL glass vials, corn starch (manufactured by FUJIFILM Wako Pure Chemical Corporation) was mixed with each of the 10% aqueous solution of 4-trehalosamine (4TA), 10% aqueous solution of trehalose (TRH), 10% aqueous solution of sucrose (SCR), and 10% aqueous solution of glycerol (GOL), which are the test samples, or water as control to a final concentration of 15% (w/w) and uniformly suspended, and the suspensions were autoclaved at 121° C. for 20 minutes to gel them. For each of them, 0-hour sample and 96-hour sample were prepared.
After cooling them to room temperature, dynamic viscoelasticity measurement was performed on the 0-hour sample within 4 hours. The 96-hour sample was left to stand at 4° C. for 96 hours and then subjected to dynamic viscoelasticity measurement.
The dynamic viscoelasticity measurement was performed using a MCR300 rheometer (manufactured by Physica, Stuttgart, Germany) under the condition of the gap of a 25-mm parallel plate measurement tool being 1.0 mm. Under the conditions of a fixed frequency of 1.0 Hz, a strain amplitude of 1%, and 25° C., a storage modulus (G′) and a loss modulus (G″) were measured and a loss tangent (tan δ=G″/G′) was calculated. In FIG. 15K, the value of tan δ is indicated on the vertical axis (n=5, mean±S.D.).

Series [4] can be described thus: Starch aging inhibiting effect, enzyme assay 3 (potato starch gel). Particulars: final concentration 10% or 15% (w/w), 48 and 96 hours. The protocol: Starch aging inhibiting effect was determined in a similar manner to the <Enzyme assay 1> except that the “—Preparation of measurement samples—” and “—Determination of starch aging inhibiting effect—” in the <Enzyme assay 1> were changed to the methods below.
The 4-trehalosamine (4TA) obtained in production example 10, and trehalose (TRH), sucrose (SCR), and glycerol (GOL) were each dissolved in water to a final concentration of 10% (w/w) or 15% (w/w), thus preparing aqueous solutions. Into each of the aqueous solutions containing the different sugars or water as control, potato starch (manufactured by Yoshida Pharmaceutical Company Limited) was mixed to a final concentration of 15% (w/w) and suspended uniformly, and the suspension was aliquoted in 33.3 μL volumes to three tubes. […]
Starch aging inhibiting effect was determined in a similar manner to the “—Determination of starch aging inhibiting effect—” of the <Enzyme assay 1> except that measurement of absorbance at 660 nm was changed to measurement of absorbance at 620 nm in the “—Determination of starch aging inhibiting effect—” of the <Enzyme assay 1>, and that quantification (absorbance measurement) of enzyme reaction and sugar was performed for the 0-hour, 48-hour, and 96-hour samples in the quantification (absorbance measurement) of enzyme reaction and sugar. […]

As for `N[C@H]1[C@H](O)[C@@H](O)[C@@H](O[C@H]2O[C@H](CO)[C@@H](O)[C@H](O)[C@H]2O)O[C@@H]1CO` [4-trehalosamine], in series [1] (fasted), the “absorption and blood circulation after oral administration” value is “a portion of orally administered 4-trehalosamine is absorbed and circulates in blood for a certain amount of time”. For the same compound, in series [1] (urine and feces), the excretion result was “excreted through feces and urine in the original form, without being degraded or modified”. Besides, the “rate of degradation by β-amylase (starch aging inhibiting effect)” value in series [2] was “significantly high rate of degradation by β-amylase at and after 48 hours compared to the other gels”; in series [4] it was “significantly high rate of degradation by β-amylase at and after 48 hours compared to the other gels”. The “change in loss tangent (tan δ) value” in series [3] is reported as “little change or a slight increase in the loss tangent value”.
